Results on 33 compounds are retold here after patent US4698306A, “Process for producing peroxidase” (Takara Shuzo Co., Ltd., priority 1984, dated 1987).

The target in test [1] is T1, peroxidase (Coprinopsis cinerea, UniProt P28314).
T1 sequence (P28314 21-363): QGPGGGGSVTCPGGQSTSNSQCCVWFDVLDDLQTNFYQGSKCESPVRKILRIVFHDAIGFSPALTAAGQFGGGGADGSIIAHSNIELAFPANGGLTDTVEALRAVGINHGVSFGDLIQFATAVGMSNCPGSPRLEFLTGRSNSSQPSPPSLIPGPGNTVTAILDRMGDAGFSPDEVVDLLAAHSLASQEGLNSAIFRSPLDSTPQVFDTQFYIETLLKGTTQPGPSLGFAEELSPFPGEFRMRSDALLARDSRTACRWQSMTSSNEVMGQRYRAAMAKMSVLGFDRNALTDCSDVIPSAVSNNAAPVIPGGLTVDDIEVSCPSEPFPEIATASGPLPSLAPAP
The test can be described thus: Effects of inhibitors, metal ions and metal chelating agents on peroxidase activity. In kind it is biochemical, Coprinus macrorhizus K-1330. The settings on record: for activity at 1000 µM / Relative activity: 1 min; for activity at 1000 µM: read-out: Relative activity; for Relative activity: peroxidase, 1000 µM.

For test [2], the target named is T1, peroxidase. The experiment in a line: Specificity for hydrogen donors prepared by combining 4-AA with various compounds. The format is biochemical, Coprinus macrorhizus K-1330. The settings on record: hydrogen donor combined with 4-AA, phenol = 100.
The target of test [3] is T1, peroxidase. The test can be described thus: Specificity for hydrogen donors prepared by combining MBTH with dimethylaniline, diethylaniline or EHMT. In kind it is biochemical, Coprinus macrorhizus K-1330. Conditions: hydrogen donor combined with MBTH; measured at 590 nm; 4-AA/phenol = 100.
Test [4] concerns Coprinus macrorhizus K-1330 (FERM BP-648). The experiment in a line: Effect of iron salts on the production of peroxidase. The format is cell-based. Conditions: culture filtrate, 26° C., 5 to 10 days.
[5] abbreviates: additive 1 mM, no addition = 100.

Where two headings read alike, the source gives them in different places.

Consider `O[C@H](CS)[C@H](O)CS` (racemic) [Dithiothreitol], for which the activity at 1000 µM at peroxidase [1] (setting [5]) came to 95%.
Turning to `Oc1c(Cl)cc(Cl)cc1Cl` [2,4,6-Trichlorophenol], on peroxidase [2] (measured at 520 nm), the Relative activity came to 96%.
With `Oc1ccc(Br)cc1Br` [2,4-Dibromophenol], the Relative activity on peroxidase [2] (measured at 520 nm) came out at 47%.
Same read-out and setting: then `Oc1ccc(Cl)cc1Cl` [2,4-Dichlorophenol], with 115%; and `Oc1c(Cl)cccc1Cl` [2,6-Dichlorophenol], with 154%.
Take `[Ba+2].[Cl-].[Cl-]` [BaCl2]: the Relative activity on peroxidase [1] came out at 96%.
The same measure, in the same setting: then `[Cl-].[Cl-].[Co+2]` [CoCl2], with 98%; and `O=S(=O)([O-])[O-].[Cu+2]` [CuSO4], with 105%.
As for `CCN(CC)c1ccccc1` [Diethylaniline], the Relative activity on peroxidase [2] (measured at 550 nm) and at peroxidase [3] was 49% each time.
With `CN(C)c1ccccc1` [Dimethylaniline], the Relative activity on peroxidase [2] (measured at 550 nm) turned out to be 21%; at peroxidase [3], 50%.
Turning to `O=C(O)CN(CCN(CC(=O)O)CC(=O)O)CC(=O)O` [EDTA], the activity at 1000 µM at peroxidase [1] came out at 97%.
For the compound `CCN(CCO)c1cccc(C)c1` [EHMT, N-ethyl-N-hydroxyethyl-m-toluidine], the Relative activity at peroxidase [2] (measured at 550 nm) turned out to be 62%; at peroxidase [3], 41%.
On to `[Cl][Fe]([Cl])[Cl]` [FeCl3], for which the Relative activity at peroxidase [1] was 107%.
As to `O.O.O.O.O.O.O.O=S(=O)([O-])[O-].[Fe+2]` [FeSO4.7H2 O], the “Peroxidase activity (maximum activity)” value was determined as 28.0 unit/ml in test [4] (0.04 % FeSO4.7H2O added to medium); 46.4 unit/ml in test [4] (0.08 % FeSO4.7H2O added to medium); 75.5 unit/ml in test [4] (0.12 % FeSO4.7H2O added to medium); 80.2 unit/ml in test [4] (0.16 % FeSO4.7H2O added to medium); 66.0 unit/ml in test [4] (0.20 % FeSO4.7H2O added to medium); 36.8 unit/ml in test [4] (0.24 % FeSO4.7H2O added to medium). Moreover, the “Peroxidase activity (maximum activity)” value in test [4] (0.32 % FeSO4.7H2O added to medium) stood at 17.0 unit/ml.
As to `[Cl][Hg][Cl]` [HgCl2], on peroxidase [1], the “Inhibition of the enzyme” value is given as “inhibited” and the Relative activity was found to be 6%.
For the compound `Oc1ccc(O)cc1` [Hydroquinone], the Relative activity on peroxidase [2] (measured at 500 nm) was 10%.
As to `O=C(O)CI` [Iodoacetic acid], the activity at 1000 µM on peroxidase [1] came to 100%.
With `N[C@@H](CS)C(=O)O` [L-cysteine], the activity at 1000 µM on peroxidase [1] (setting [5]) was determined as 105%.
In the case of `[Cl][Mn][Cl]` [MnCl2], the Relative activity on peroxidase [1] stood at 86%.
On the same count and under the same terms, to `O=S(=O)([O-])[O-].[Ni+2]` [NiSO4] belongs 92%; to `O=C(O)c1cc[c]([Hg][Cl])cc1` [PCMB, p-Chloromercuribenzoic acid], 98%.
Same read-out and setting: then `O=S(=O)(F)Cc1ccccc1` [PMSF, Phenylmethylsulfonyl fluoride], with 98%.
As to `Oc1ccccc1` [Phenol], at peroxidase [2] (measured at 500 nm), the Relative activity is 100%.
The same measure, in the same setting: to `Oc1ccccc1O` [Pyrocatechol] belongs 58%.
Same read-out and setting: to `Oc1cccc(O)c1` [Resorcinol] belongs 10%.
Consider `[Cl][Sn][Cl]` [SnCl2], for which the Relative activity at peroxidase [1] is reported as 92%.
As to `[N-]=[N+]=[N-]` [Sodium azide], the “Inhibition of the enzyme” value at peroxidase [1] is reported as “inhibited”.
Take `[F-].[Na+]` [Sodium fluoride]: the Relative activity at peroxidase [1] was determined as 103%.
As for `NC(N)=S` [Thiourea], on peroxidase [1], the “Inhibition of the enzyme” value was “inhibited” and the activity at 1000 µM was determined as 57%.
On to `[Cl-].[Cl-].[Zn+2]` [ZnCl2], for which the Relative activity at peroxidase [1] was determined as 85%.
With `c1cnc2c(c1)ccc1cccnc12` [o-Phenanthroline], the activity at 1000 µM at peroxidase [1] (setting [5]) was 88%.
Consider `c1ccc(-c2ccccn2)nc1` [α,α'-Dipyridyl], for which the activity at 1000 µM on peroxidase [1] stood at 103%.
`Oc1cccc2ccccc12` [α-Naphthol]: the Relative activity at peroxidase [2] (measured at 500 nm) was 18%.
